{"source": "patent US20040110637A1", "about": "“Method of safening crops using isoxazoline carboxylates” (priority 2001, published 2004)", "type_in_all_cases": "in vivo", "key": {"[1]": {"tested_on": "corn (variety Dea)", "assay": "Corn seed treatment with safener, then post-emergence herbicide H3 (diflufenzopyr + dicamba sodium salts); visual crop injury", "experimental": "(§1) The number of crop seeds that would be needed for each safener rate was calculated. Based on the weight of 100 seeds, sufficient seeds were weighed into screw top glass bottles approximately twice the volume of the seeds.\n(§2) The prospective safeners were formulated as wettable powders or water dispersible granules. These formulations were weighed out so that the required rates (g a.i./kg seed) would be obtained. The samples were added to the seeds in the bottles and then sufficient water added to produce a slurry. The bottles were capped and then placed in an overhead shaker (set at medium speed for up to 1 hour) so that the seeds were evenly coated with the slurry. The bottles were uncapped and the seeds used in the pre- or post-emergence tests as described in sections 1.2 and 1.3.\n(§3) As an alternative seed treatment method, active ingredient of the prospective safeners was weighed and dissolved in a solvent (e.g. acetone) and added to the seeds in the bottles. […]\n(§4) In tests in which larger quantities of seeds required treatment, the prospective safeners, either as formulated samples in water or as active ingredient dissolved in solvent were applied to seeds using a mini-rotostat apparatus. […]\n(§5) Corn seeds were treated according to example 1.1. […] After 3 to 4 weeks the results were visually scored in comparison with control plants (without seed treatment and herbicide treatment)."}, "[2]": {"tested_on": "ZEAMA = Zea mays (maize), variety Lorenzo", "assay": "Corn seed treatment with safener, then pre-emergence herbicide H1 (isoxaflutole); visual crop injury", "settings": "safener seed treatment 0.1 g a.i./kg seed + Herbicide H1 pre-emergent 100 g a.i./ha", "experimental": "as §1, §2, §3, §4, §5"}, "[3]": {"tested_on": "TRZAS, Triticum aestivum (wheat), variety Ralle", "assay": "Wheat seed treatment with safener, then pre-emergence herbicide H2 (metolachlor); visual crop injury", "settings": "for Safener effect in % reduction in crop injury: TRZAS", "experimental": "as §1, §2\n(§6) As an alternative seed treatment method, active ingredient of the prospective safeners was weighed and dissolved in a solvent (e.g. acetone) and added to the seeds in the bottles. The solvent type and volume was selected based on prior experience so that it would have no negative impact on seed germination or subsequent plant growth. After shaking for up to 1 hour (overhead shaker) the seeds were spread out on paper in a fume cabinet to allow the remaining solvent to evaporate. The seeds were then used in the pre- or post-emergence tests as described in sections 1.2 and 1.3.\n(§7) In tests in which larger quantities of seeds required treatment, the prospective safeners, either as formulated samples in water or as active ingredient dissolved in solvent were applied to seeds using a mini-rotostat apparatus. The seeds were allowed to dry for a short time before being used in the pre- or post-emergence tests as described in sections 1.2 and 1.3.\n(§8) The safener treated seeds and untreated comparison seeds were sown into 7 to 13 cm round pots in a sandy loam soil and covered with approximately 0.5 to 1 cm of a 1 to 1 mix of sandy loam soil and sand. Herbicidal substances, as liquid (e.g. Emulsifiable concentrates) or dry (e.g. wettable powder) formulations, were diluted to the required concentrations in deionised water and applied to the soil surface using a track sprayer calibrated to deliver 300 to 800 litres of spray solution per hectare.\n(§9) The pots were placed under good growing conditions in a glasshouse and a visual assessment of herbicidal effects made after 3 to 4 weeks after herbicide application. Assessment was on a percentage basis in comparison with untreated control plants (0%=no injury, 100%=complete kill).\nWheat or barley seeds were treated according to example 1.1. After sowing the herbicide was applied pre-emergent on the soil surface as described in example 1.2. After 3 to 4 weeks the results were visually scored in comparison with control plants (without seed treatment and herbicide treatment)."}, "[4]": {"tested_on": "HORVS = Hordeum vulgare (barley), variety Boroness", "assay": "Barley seed treatment with safener, then pre-emergence herbicide H2 (metolachlor); visual crop injury", "settings": "for Safener effect in % reduction in crop injury: HORVS", "experimental": "as §1, §2, §6, §7, §8, §9\nWheat or barley seeds were treated according to example 1.1. […] After 3 to 4 weeks the results were visually scored in comparison with control plants (without seed treatment and herbicide treatment)."}, "[5]": {"settings": "safener seed treatment 0.5 g a.i./kg seed + Herbicide H2 pre-emergent 700 g a.i./ha"}, "[6]": {"settings": "safener seed treatment 1 g a.i./kg seed + Herbicide H2 pre-emergent 700 g a.i./ha"}, "[7]": {"settings": "safener seed treatment 2 g a.i./kg seed + Herbicide H2 pre-emergent 700 g a.i./ha"}}}
{"smiles": "CCOC(=O)C1=NOC(c2ccccc2)(c2ccccc2)C1", "note": "[(lb)]", "values": [{"measurement": "% injury to corn (variety Dea)", "setting": "[1]; safener seed treatment 0.01 g a.i./kg seed + Herbicide H3 500 g a.i./ha (head: pre-emergent; text: post-emergent at 2 to 3-leaf stage)", "value": 10, "unit": "%"}, {"measurement": "Safener effect in % reduction in crop injury", "setting": "[1]; safener seed treatment 0.01 g a.i./kg seed + Herbicide H3 500 g a.i./ha, corn variety Dea", "value": 57, "unit": "%"}, {"measurement": "Safener effect in % reduction in crop injury", "setting": "[2]; ZEAMA", "value": 71, "unit": "%"}, {"measurement": "% injury to ZEAMA", "setting": "[2]; after 3 to 4 weeks", "value": 10, "unit": "%"}, {"measurement": "% injury to TRZAS", "setting": "[3]; [5]", "value": 10, "unit": "%"}, {"measurement": "Safener effect in % reduction in crop injury", "setting": "[3]; [5]", "value": 86, "unit": "%"}, {"measurement": "% injury to TRZAS", "setting": "[3]; [6]", "value": 20, "unit": "%"}, {"measurement": "Safener effect in % reduction in crop injury", "setting": "[3]; [6]", "value": 73, "unit": "%"}, {"measurement": "% injury to TRZAS", "setting": "[3]; [7]", "value": 15, "unit": "%"}, {"measurement": "Safener effect in % reduction in crop injury", "setting": "[3]; [7]", "value": 79, "unit": "%"}, {"measurement": "% injury to HORVS", "setting": "[4]; [5]", "value": 0, "unit": "%"}, {"measurement": "Safener effect in % reduction in crop injury", "setting": "[4]; [5]", "value": 100, "unit": "%"}, {"measurement": "% injury to HORVS", "setting": "[4]; [6]", "value": 0, "unit": "%"}, {"measurement": "Safener effect in % reduction in crop injury", "setting": "[4]; [6]", "value": 100, "unit": "%"}]}
